{"source": "paper PMC5666006", "about": "“Combating virulence of Gram-negative bacilli by OmpA inhibition” (Scientific Reports, 2017)", "key": {"[1]": {"test_system": "P. aeruginosa PaO1", "experiment": "Adhesion of bacteria to A549 cells", "format": "cell-based", "settings": "0.25 or 0.5 mg/mL, 2 h", "method": "(§1) Subsequently, infected A549 cells were washed five times with pre-warmed PBS and lysed with 0.5% Triton X-100. Diluted lysates were plated onto blood agar (Blood-Agar Columbia, Becton Dickinson Microbiology Systems, USA) and incubated at 37 °C for 24 h for enumeration of developed colonies and then the determination of the number of bacteria that attached to A549 cells."}, "[2]": {"test_system": "E. coli ATCC 25922", "experiment": "Adhesion of bacteria to A549 cells", "format": "cell-based", "settings": "0.25 or 0.5 mg/mL, 2 h", "method": "as §1"}, "[3]": {"test_system": "P. aeruginosa PaO1", "experiment": "Murine peritoneal sepsis model", "format": "in vivo, mouse", "method": "(§2) Murine peritoneal sepsis models with A. baumannii ATCC 17978, P. aeruginosa PaO1 or E. coli ATCC 25922 strains were established by i.p. inoculation of the bacteria. Briefly, mice were inoculated with 0.5 mL of the bacterial suspensions, which were incubated for 20–24 h in LB at 37 °C and mixed in a 1:1 ration with a saline solution containing 10% (w/v) porcine mucin (Sigma, Spain).\n(§3) The murine peritoneal sepsis models by A. baumannii ATCC 17978, P. aeruginosa PaO1 or E. coli ATCC 25922 strains were established by i.p. inoculation of the bacteria. Briefly, animals were infected i.p. with 0.5 mL of the MLD100 of A. baumannii ATCC 17978, P. aeruginosa PaO1, or E. coli ATCC 25922 strains mixed 1:1 with 10% porcine mucin. […] Fifthy-six mice were randomly ascribed to the following groups: 1). controls (without treatment), and 2). […] Mortality was recorded over 72 h. After death or sacrifice of the mice at the end of the experimental period, aseptic thoracotomies were performed, and blood samples were obtained by cardiac puncture for qualitative blood cultures. The spleen and lungs were aseptically removed and homogenized (Stomacher 80; Tekmar Co., USA) in 2 mL of sterile NaCl 0.9% solution. Ten-fold dilutions of the homogenized spleen and lungs were plated onto Sheep blood agar for quantitative cultures (log CFU/g of spleen or lungs)."}, "[4]": {"test_system": "A. baumannii ATCC 17978", "experiment": "Murine peritoneal sepsis model", "format": "in vivo, mouse", "method": "as §2, §3"}, "[5]": {"test_system": "E. coli ATCC 25922", "experiment": "Murine peritoneal sepsis model", "format": "in vivo, mouse", "method": "as §2, §3"}, "[6]": {"experiment": "AOA-2 pharmacokinetics in serum", "settings": "mouse, in vivo, ip, 10 mg/kg"}, "[7]": {"experiment": "AOA-2 in vivo toxicity (Reed and Munch method)", "design": "species or system mouse", "settings": "female, C57BL/6, mouse, in vivo, ip, mice, single i.p. dose, groups of six, survival one week", "method": "(§4) Animals were housed in regulation cages with food and water ad libitum. This study was carried out in strict accordance with the recommendations in the Guide for the Care and Use of Laboratory Animals[41]. The protocol was approved by the Committee on the Ethics of Animal Experiments of the University Hospital of Virgen del Rocío, Seville (2012PI/238). All surgery was performed under sodium thiopental anaesthesia, and all efforts were made to minimize suffering.\n(§5) The Reed and Munch method was used[42]. […] LD50 value was determined using the Probit method.\n(§6) 20, 40, 80 or 160 mg/kg. Mice survival was monitored for a one week and lethal doses (LD) 0,\n(§7) 50 and 100 were calculated."}, "[8]": {"test_system": "C57BL/6 female mice", "experiment": "AOA-2 in vivo toxicity (Reed and Munch method)", "design": "species or system mouse", "method": "as §4, §5, §6, §7"}, "[9]": {"test_system": "P. aeruginosa PaO1", "experiment": "Fibronectin-binding assay", "format": "cell-based", "settings": "P. aeruginosa PaO1, 0.25 or 0.5 mg/mL, 2 h", "method": "(§8) Fibronectin-binding assay was performed as described previously. Briefly, A. baumannii ATCC 17978, P. aeruginosa PaO1, and E. coli ATCC 25922 grown overnight at 37 °C in LB were resuspended in PBS and collected by centrifugation at 5,000 × g for 10 min. […] Then, 50 µL of bacterial suspension were mixed with 50 µL of PBS, added to fibronectin coated wells and incubated 2 h at room temperature for bacterial adsorption. Non-adhered bacteria were discarded and wells were washed six times with sterile PBS to remove unbound bacteria. Adherent bacteria were then collected with 125 µL of sterile PBS containing 0.5% Triton X-100. Diluted lysates were plated onto sheep blood agar and incubated at 37 °C for 24 h for enumeration of developed colonies and then the determination of the number of bacteria that attached to fibronectin."}, "[10]": {"test_system": "A. baumannii ATCC 17978", "experiment": "Fibronectin-binding assay", "format": "cell-based", "settings": "A. baumannii ATCC 17978, 0.25 or 0.5 mg/mL, 2 h", "method": "as §8"}, "[11]": {"test_system": "E. coli ATCC 25922", "experiment": "Fibronectin-binding assay", "format": "cell-based", "settings": "E. coli ATCC 25922, 0.25 or 0.5 mg/mL, 2 h", "method": "as §8"}, "[12]": {"settings": "P. aeruginosa PaO1, 10 mg/kg/d i.p., 72 h"}, "[13]": {"settings": "P. aeruginosa PaO1 MLD i.p., 10 mg/kg AOA-2 i.p. 2 h after challenge"}, "[14]": {"settings": "A. baumannii ATCC 17978, 10 mg/kg/d i.p., 72 h"}, "[15]": {"settings": "A. baumannii ATCC 17978 MLD i.p., 10 mg/kg AOA-2 i.p. 2 h after challenge"}, "[16]": {"settings": "E. coli ATCC 25922, 10 mg/kg/d i.p., 72 h"}, "[17]": {"settings": "E. coli ATCC 25922 MLD i.p., 10 mg/kg AOA-2 i.p. 2 h after challenge"}}, "note": "Where a SMILES comes first, the peptide text is derived from it. [ ]: non-standard residue; d: D form."}
{"molecule": "N=C(N)NCCC[C@@H]1NC(=O)[C@H]2CCCN2C(=O)[C@H](Cc2c[nH]c3ccccc23)NC(=O)[C@H](CCCNC(=N)N)NC(=O)[C@H]2CCCN2C(=O)[C@H](Cc2c[nH]c3ccccc23)NC1=O", "note": "[AOA-2] (cyclo(RW[dP]RW[dP]))", "values": [{"measurement": "adherence of P. aeruginosa to A549 cells (in words)", "setting": "[1]", "value": "significant reduction in adherence"}, {"measurement": "adherence of E. coli to A549 cells (in words)", "setting": "[2]", "value": "significant reduction in adherence"}, {"measurement": "mouse mortality (in words)", "setting": "[3]; [12]", "value": "decreased"}, {"measurement": "positive blood cultures (in words)", "setting": "[3]; [12]", "value": "decreased"}, {"measurement": "reduced the bacterial load in the lungs", "setting": "[3]; [13]", "value": 4.29, "unit": "log CFU/g"}, {"measurement": "reduced the bacterial load in the spleen", "setting": "[3]; [13]", "value": 4.04, "unit": "log CFU/g"}, {"measurement": "mouse mortality (in words)", "setting": "[4]; [14]", "value": "decreased"}, {"measurement": "positive blood cultures (in words)", "setting": "[4]; [14]", "value": "decreased"}, {"measurement": "reduced the bacterial load in the lungs", "setting": "[4]; [15]", "value": 4.34, "unit": "log CFU/g"}, {"measurement": "reduced the bacterial load in the spleen", "setting": "[4]; [15]", "value": 4.54, "unit": "log CFU/g"}, {"measurement": "mouse mortality (in words)", "setting": "[5]; [16]", "value": "decreased"}, {"measurement": "positive blood cultures (in words)", "setting": "[5]; [16]", "value": "decreased"}, {"measurement": "reduced the bacterial load in the lungs", "setting": "[5]; [17]", "value": 3.47, "unit": "log CFU/g"}, {"measurement": "reduced the bacterial load in the spleen", "setting": "[5]; [17]", "value": 3.36, "unit": "log CFU/g"}, {"measurement": "half-life", "setting": "[6]", "value": 56, "unit": "min"}, {"measurement": "LD50 at 168 h", "setting": "[7]; Probit method", "value": 85, "unit": "mg/kg"}, {"measurement": "MTD at 168 h", "setting": "[7]; read-out: LD0 (maximum tolerated dose)", "value": 40, "unit": "mg/kg"}, {"measurement": "dose without any evidence of toxicity", "setting": "[8]; i.p.", "value": "≤ 40", "unit": "mg/kg"}, {"measurement": "LD100", "setting": "[8]; single i.p. dose, groups of six, survival one week", "value": 160, "unit": "mg/kg"}, {"measurement": "bacterial adherence to fibronectin (in words)", "setting": "[9]", "value": "significant decrease in the bacterial adherence to fibronectin"}, {"measurement": "bacterial adherence to fibronectin (in words)", "setting": "[10]", "value": "significant decrease in the bacterial adherence to fibronectin"}, {"measurement": "bacterial adherence to fibronectin (in words)", "setting": "[11]", "value": "significant decrease in the bacterial adherence to fibronectin"}]}
